Molecules are shown by their SMILES.

In assay [1] the test system is blood pressure (average arterial pressure). Put plainly: Blood pressure lowering activity in anesthetized rabbits. The class given is in vivo, rabbit. The note with it: average of at least three rabbits.
The subject of assay [2] is platelet aggregation induced by arachidonic acid. Put plainly: Inhibitory effect on platelet aggregation (arachidonic acid-induced, rabbit platelet-rich plasma). As to conditions: arachidonic acid 137 μ moles/liter. The class given is cell-based. How it is done: (1) Measurement of inhibitory effect on platelet aggregation:
Blood was drawn from ether-anesthetized rabbits (weighing 2.5 to 3.5 kg) through a canule inserted into the carotid artery. Immediately then, a 3.8% aqueous solution of sodium citrate was added to the collected blood in a volume of 1/10 of the volume of the blood after addition of the aqueous solution citrate solution. The blood was then centrifuged for 15 minutes at 150 G at room temperature to obtain plasma having platelet suspended therein as a supernatant.
An aliquot of 0.435 ml of platelet-rich plasma was put into the cell of an aggregometer adjusted to a temperature of 37° C. and a stirring speed of 1200 rpm. […] An aqueous solution of arachidonic acid as a platelet aggregation inducing agent (the final concentration of arachidonic acid is 137μ moles/liter) was added, and with stirring, changes in absorbance were measured for 10 minutes.
The effect of platelet aggregation inhibition of the test compound was calculated as follows: [formula] ΔC: a change in absorbance in a control run, ΔS: a change in absorbance when the test compound was added.
In the control run, 2.5 μl of dimethyl sulfoxide was added instead of the test compound.

[3] abbreviates: final concentration 100 μ moles/liter.
Where [4] appears, read: final concentration 3 μ moles/liter.
Setting [5] is: final concentration 10 μ moles/liter.
Where [6] appears, read: final concentration 30 μ moles/liter.

Regarding `CCOC(=O)c1c(C)cc2cnc(-c3ccccc3C(F)(F)F)nc2c1C` [Example 5, 2-(o-trifluoromethylphenyl)-7-ethoxycarbonyl-6,8-dimethylquinazoline], in assay [1] (100 μg/kg i.v.), the “Blood pressure lowering effect” value is reported as 25 mmHg. Moreover, the “inhibition of platelet aggregation” value in assay [2] (setting [3]) worked out at 100%.

Turning to `CCOC(=O)c1c(C)cc2cnc(Cc3ccccc3)nc2c1C` [Example 7, 2-benzyl-7-ethoxycarbonyl-6,8-dimethylquinazoline], the “Blood pressure lowering effect” value in assay [1] (100 μg/kg i.v.) was 18 mmHg. The “inhibition of platelet aggregation” value in assay [2] (setting [3]) came to 100%.

As to `CCOC(=O)c1c(C)cc2cnc(-c3ccccc3F)nc2c1C` [Example 4, 2-(o-fluorophenyl)-7-ethoxycarbonyl-6,8-dimethylquinazoline], the “Blood pressure lowering effect” value in assay [1] (100 μg/kg i.v.) was determined as 32 mmHg. The “inhibition of platelet aggregation” value in assay [2] (final concentration 1 μ moles/liter) and in assay [2] (setting [4]) was 100% throughout.

On to `CCOC(=O)c1c(C)cc2cnc(-c3ccccc3C)nc2c1C` [Example 3, 2-(o-methylphenyl)-7-ethoxycarbonyl-6,8-dimethylquinazoline], for which, in assay [1] (100 μg/kg i.v.), the “Blood pressure lowering effect” value stood at 20 mmHg. Further, the “inhibition of platelet aggregation” value in assay [2] (setting [5]) and in assay [2] (setting [6]) was 100% throughout.

As for `CCOC(=O)c1c(C)cc2cnc(-c3ccccc3Cl)nc2c1C` [Example 1, 2-(o-chlorophenyl)-7-ethoxycarbonyl-6,8-dimethylquinazoline], the results for the “Blood pressure lowering effect” value in assay [1] (10 μg/kg i.v.), in assay [1] (30 μg/kg i.v.) and in assay [1] (100 μg/kg i.v.) were 12 mmHg, 22 mmHg and 49 mmHg, respectively. Further, the “inhibition of platelet aggregation” value in assay [2] (setting [4]), in assay [2] (setting [5]) and in assay [2] (setting [6]) was 100% each time.

With `CCOC(=O)c1c(C)cc2cnc(C)nc2c1C` [Example 6, 2-methyl-7-ethoxycarbonyl-6,8-dimethylquinazoline], the “Blood pressure lowering effect” value in assay [1] (100 μg/kg i.v.) is reported as 12 mmHg. Also, the “inhibition of platelet aggregation” value in assay [2] (setting [3]) is on record as 100%.

Turning to `CCOC(=O)c1c(C)cc2cnc(-c3ccccc3)nc2c1C` [Example 2, 2-phenyl-7-ethoxycarbonyl-6,8-dimethylquinazoline], in assay [1] (100 μg/kg i.v.), the “Blood pressure lowering effect” value amounted to 15 mmHg. Also, the “inhibition of platelet aggregation” value in assay [2] (setting [5]) and in assay [2] (setting [6]) was 100% throughout.

For the origin of these results see patent publication US4517189A, “2,6,7,8-Substituted quinazolines, process for production thereof, and use thereof” (Showa Denko K.K., priority 1983, dated 1985).
